Experimental data taken from ChEMBL document CHEMBL1201862, “PubChem BioAssay data set” (2004).
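Exposure lasted 48 hours, with cells grown in 96-well plates and compounds tested at five concentrations. Abbreviation: GI50, concentration required for 50% inhibition of growth.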 Calls of active or inactive are those of the source. Cut-off read from the data, not from the text of the source: active = GI50 up to about 1.1 µM and inactive = higher.

Assays:
Assay in all cases: inhibition of tumour cell growth, NCI panel, 48 h
U-251 = system: U-251
NCI/ADR-RES = system: NCI/ADR-RES
SNB-19 = system: SNB-19
UACC-257 = system: UACC-257
786-0 = system: 786-0
M14 = system: M14
ACHN = system: ACHN
CAKI-1 = system: CAKI-1
MDA-N = system: MDA-N
NCI-H522 = system: NCI-H522
UACC-62 = system: UACC-62
MOLT-4 = system: MOLT-4
HT-29 = system: HT-29
SW-620 = system: SW-620
TK-10 = system: TK-10
OVCAR-5 = system: OVCAR-5
SR = system: SR
MDA-MB-435 = system: MDA-MB-435
HCC 2998 = system: HCC 2998
HOP-62 = system: HOP-62

SMILES	GI50 (U-251)	GI50 (NCI/ADR-RES)	GI50 (SNB-19)	GI50 (UACC-257)	GI50 (786-0)	GI50 (M14)	GI50 (ACHN)	GI50 (CAKI-1)	GI50 (MDA-N)	GI50 (NCI-H522)	GI50 (UACC-62)	GI50 (MOLT-4)	GI50 (HT-29)	GI50 (SW-620)	GI50 (TK-10)	GI50 (OVCAR-5)	GI50 (SR)	GI50 (MDA-MB-435)	GI50 (HCC 2998)	GI50 (HOP-62)
CN(C)c1ccc(/N=N/c2ccc3[nH]cnc3c2)cc1	24.5 µM (inactive)	41 µM (inactive)	41.8 µM (inactive)	23 µM (inactive)	18.2 µM (inactive)	21.4 µM (inactive)	19 µM (inactive)	42.2 µM (inactive)	26.9 µM (inactive)	19.3 µM (inactive)	24.8 µM (inactive)	21.8 µM (inactive)	16.1 µM (inactive)	29.6 µM (inactive)	22.5 µM (inactive)	26.5 µM (inactive)	25.1 µM (inactive)	19.5 µM (inactive)	–	–
COc1ccc(-n2cnc3c(N)nc(N)nc32)cc1	> 100 µM (inactive)	> 100 µM (inactive)	> 100 µM (inactive)	> 100 µM (inactive)	> 100 µM (inactive)	> 100 µM (inactive)	> 100 µM (inactive)	76.7 µM (inactive)	> 100 µM (inactive)	> 100 µM (inactive)	30.8 µM (inactive)	34 µM (inactive)	> 100 µM (inactive)	> 100 µM (inactive)	85.7 µM (inactive)	> 100 µM (inactive)	–	> 100 µM (inactive)	64.4 µM (inactive)	> 100 µM (inactive)
CCSc1nnc2c(-c3ccccc3)n[nH]c2n1	> 100 µM (inactive)	> 100 µM (inactive)	> 100 µM (inactive)	> 100 µM (inactive)	86.7 µM (inactive)	> 100 µM (inactive)	> 100 µM (inactive)	> 100 µM (inactive)	> 100 µM (inactive)	> 100 µM (inactive)	> 100 µM (inactive)	> 100 µM (inactive)	> 100 µM (inactive)	> 100 µM (inactive)	> 100 µM (inactive)	> 100 µM (inactive)	> 100 µM (inactive)	> 100 µM (inactive)	–	59.8 µM (inactive)
CCN1CSC(=S)N(CC)C1	50.8 µM (inactive)	> 100 µM (inactive)	> 100 µM (inactive)	> 100 µM (inactive)	28.6 µM (inactive)	50.6 µM (inactive)	> 100 µM (inactive)	–	79.8 µM (inactive)	22.6 µM (inactive)	38.8 µM (inactive)	34.4 µM (inactive)	41.1 µM (inactive)	36.6 µM (inactive)	> 100 µM (inactive)	> 100 µM (inactive)	–	46.8 µM (inactive)	> 100 µM (inactive)	24 µM (inactive)
CC(SCc1ccccc1)C(=O)O (stereo not given)	> 100 µM (inactive)	> 100 µM (inactive)	> 100 µM (inactive)	> 100 µM (inactive)	> 100 µM (inactive)	> 100 µM (inactive)	> 100 µM (inactive)	> 100 µM (inactive)	> 100 µM (inactive)	> 100 µM (inactive)	> 100 µM (inactive)	> 100 µM (inactive)	> 100 µM (inactive)	> 100 µM (inactive)	> 100 µM (inactive)	> 100 µM (inactive)	> 100 µM (inactive)	> 100 µM (inactive)	–	> 100 µM (inactive)
O=C(c1ccccc1)N1CCC(CC2(c3cc4ccccc4[nH]3)OCCO2)CC1	34.8 µM (inactive)	> 100 µM (inactive)	67.9 µM (inactive)	27.5 µM (inactive)	17.8 µM (inactive)	18.5 µM (inactive)	65.8 µM (inactive)	> 100 µM (inactive)	26.2 µM (inactive)	–	19 µM (inactive)	19.5 µM (inactive)	26.5 µM (inactive)	19.5 µM (inactive)	28.3 µM (inactive)	64 µM (inactive)	33 µM (inactive)	20.6 µM (inactive)	–	58.1 µM (inactive)
N=c1c2c(-c3ccccc3)c[nH]c2ncn1N	> 100 µM (inactive)	> 100 µM (inactive)	> 100 µM (inactive)	> 100 µM (inactive)	> 100 µM (inactive)	> 100 µM (inactive)	> 100 µM (inactive)	> 100 µM (inactive)	> 100 µM (inactive)	> 100 µM (inactive)	> 100 µM (inactive)	> 100 µM (inactive)	> 100 µM (inactive)	> 100 µM (inactive)	> 100 µM (inactive)	> 100 µM (inactive)	–	> 100 µM (inactive)	> 100 µM (inactive)	> 100 µM (inactive)
O=Cc1ccc(Oc2c3ccccc3nc3ccccc23)cc1	5.27 µM (inactive)	10.2 µM (inactive)	16.4 µM (inactive)	0.346 µM (active)	2.32 µM (inactive)	3.44 µM (inactive)	3.61 µM (inactive)	7.05 µM (inactive)	3.51 µM (inactive)	–	0.46 µM (active)	< 0.01 µM (active)	2.07 µM (inactive)	–	6.03 µM (inactive)	4.29 µM (inactive)	0.053 µM (active)	2.45 µM (inactive)	14.8 µM (inactive)	14.4 µM (inactive)
O=C(OCc1ccc([N+](=O)[O-])cc1)N1c2ccccc2[C@@]23O[C@]24CCC[C@H]3C#C/C=C\C#C[C@H]14	> 100 µM (inactive)	43.6 µM (inactive)	> 100 µM (inactive)	> 100 µM (inactive)	> 100 µM (inactive)	> 100 µM (inactive)	78.9 µM (inactive)	37.4 µM (inactive)	> 100 µM (inactive)	25.8 µM (inactive)	> 100 µM (inactive)	3.27 µM (inactive)	> 100 µM (inactive)	72.9 µM (inactive)	> 100 µM (inactive)	> 100 µM (inactive)	–	> 100 µM (inactive)	> 100 µM (inactive)	–
NNc1ncc2c(n1)-c1ccccc1OC2	54.2 µM (inactive)	28 µM (inactive)	> 100 µM (inactive)	> 100 µM (inactive)	64.3 µM (inactive)	52.4 µM (inactive)	42.2 µM (inactive)	> 100 µM (inactive)	> 100 µM (inactive)	46.5 µM (inactive)	63.7 µM (inactive)	22.5 µM (inactive)	43.9 µM (inactive)	69.7 µM (inactive)	> 100 µM (inactive)	> 100 µM (inactive)	27.8 µM (inactive)	70.5 µM (inactive)	–	35.6 µM (inactive)
O=c1c2cc(S(=O)(=O)O)ccc2nc(COc2ccc(Oc3ccc(Cl)cc3Cl)cc2)n1-c1ccc(Oc2ccc(Cl)cc2)cc1Cl	16 µM (inactive)	18.3 µM (inactive)	26.4 µM (inactive)	25.2 µM (inactive)	20 µM (inactive)	19.4 µM (inactive)	24.5 µM (inactive)	30.8 µM (inactive)	23.7 µM (inactive)	20.4 µM (inactive)	17.4 µM (inactive)	10.4 µM (inactive)	18.7 µM (inactive)	21.5 µM (inactive)	22 µM (inactive)	23.2 µM (inactive)	15.2 µM (inactive)	19.7 µM (inactive)	–	21.4 µM (inactive)
CC(C(=O)c1ccccc1)C(c1ccccc1)N1CCOCC1 (stereo not given)	> 100 µM (inactive)	> 100 µM (inactive)	> 100 µM (inactive)	> 100 µM (inactive)	> 100 µM (inactive)	> 100 µM (inactive)	> 100 µM (inactive)	> 100 µM (inactive)	> 100 µM (inactive)	> 100 µM (inactive)	> 100 µM (inactive)	66.8 µM (inactive)	> 100 µM (inactive)	> 100 µM (inactive)	> 100 µM (inactive)	> 100 µM (inactive)	> 100 µM (inactive)	> 100 µM (inactive)	–	> 100 µM (inactive)
O=C1CCCC(=O)N1n1c(Cc2ccc(Cl)cc2)n[nH]c1=O	> 100 µM (inactive)	> 100 µM (inactive)	> 100 µM (inactive)	> 100 µM (inactive)	> 100 µM (inactive)	> 100 µM (inactive)	> 100 µM (inactive)	> 100 µM (inactive)	> 100 µM (inactive)	> 100 µM (inactive)	> 100 µM (inactive)	> 100 µM (inactive)	> 100 µM (inactive)	> 100 µM (inactive)	> 100 µM (inactive)	> 100 µM (inactive)	–	> 100 µM (inactive)	> 100 µM (inactive)	> 100 µM (inactive)
CCOC(=O)c1ccc(NCC#CCN2CCOCC2)cc1	> 100 µM (inactive)	> 100 µM (inactive)	> 100 µM (inactive)	–	> 100 µM (inactive)	29.7 µM (inactive)	46 µM (inactive)	–	29.4 µM (inactive)	–	34.8 µM (inactive)	> 100 µM (inactive)	69.2 µM (inactive)	> 100 µM (inactive)	–	19.9 µM (inactive)	> 100 µM (inactive)	> 100 µM (inactive)	–	> 100 µM (inactive)
CN1CCN(Cc2cc3c(nn2)-c2ccccc2C3=O)CC1	44.3 µM (inactive)	50.1 µM (inactive)	43.5 µM (inactive)	19.2 µM (inactive)	40.6 µM (inactive)	31.2 µM (inactive)	26.2 µM (inactive)	> 100 µM (inactive)	24.4 µM (inactive)	14.3 µM (inactive)	44.4 µM (inactive)	38.7 µM (inactive)	53 µM (inactive)	52.7 µM (inactive)	> 100 µM (inactive)	> 100 µM (inactive)	18.3 µM (inactive)	23.7 µM (inactive)	–	–
